Reference: patent US20250188088A1, “COMPOUND AND USE THEREOF” (ONQUALITY PHARMACEUTICALS CHINA LTD., priority 2022, published 2025)

Legend:
[1] = Plasma stability, mini pig plasma; format: in vitro ADME, Mini Pigs; conditions: 37° C.
Method: (§1) In addition, the plasma stability of these compounds was determined. Briefly, the determination method comprises the following steps: • 1) Thaw the frozen mixed plasma in a 37° C. water bath before testing, and then centrifuge at 4000 rpm for 5 min to remove blood clots; • 2) Add 98 μL blank plasma into each well of the 96-well reaction plate; • 3) In addition to the blank samples, add 2 μL of 100 μM working solution of test compound into each well; • 3) Incubate the reaction plate at 37° C. and start timing. Incubation times were 0, 10, 30, 60 and 120 minutes, respectively, with two replicate wells at each time point; • 4) Terminate the incubation at the corresponding time point, and add 400 μL of acetonitrile solution containing 200 ng/mL tolbutamide and 200 ng/mL labetalol to precipitate proteins; • 5) Shake each plate for 20 minutes, then centrifuge at 4000 rpm for 20 minutes, transfer 50 μL of supernatant to another 96-well plate, and dilute each sample with 100 μL of pure water; • 6) Analyze the sample by LC-MS/MS.

[2] = tested on: rash caused by monoclonal EGFR inhibitors; test: Prevention of rash caused by monoclonal EGFR inhibitors, topical ointment, rat model; format: in vivo, SD rats
Method: An Experiment to Verify the Prevention of Rash Caused by Monoclonal EGFR Inhibitors with Topical Administration of Compounds of the Present Application on a Rat Animal Model After the SD rats were fed and adapted for one week (about 200 g), the rats were divided into 10 rats per group. The hair on the back of rats was gently removed with an electric razor one day before the experiment, and then an administration test was carried out. The experiments were divided into the administration group with the compound of the present application and the control group. The EGFR monoclonal antibody solution diluted with normal saline was injected via the tail vein twice a week, and the injection rate and time are shown in Table 2. After injection, the administration group applied the compound ointment of the present application on the backs (about 3 cm*3 cm) of rats every day, and the control group applied blank matrix ointment (about 0.5 g) to the backs (about 3 cm*3 cm) of rats every day. After drug application, the rats were fixed with a fixed cyclinder for 4 h; after that, the rats were released and the residual drug at the application site was wiped off with clear water. Monoclonal antibody EGFR inhibitors were injected via the tail vein twice a week, and the compound of the present application and blank ointment were applied once a day until obvious rashes appeared in the control group. […] Table 2 lists the animal experiment combinations of various monoclonal antibody EGFR inhibitors and the compound ointment of the present application, as well as the corresponding experiment results (wherein, the value in the control rate column=the number of rats whose rash is milder in the administration group than that in the control group/the total number of rats in the administration group×100%).

[3] = tested on: skin contact delayed-type hypersensitivity; test: Skin contact delayed-type hypersensitivity (DNFB) response test, ear swelling, topical ointment; format: in vivo; conditions: topical to ears, DNFB DTH, Balb/c mice, compared to blank ointment
Description: Therapeutic Effect of Topical Administration of Compounds of the Present Application in Skin Contact Delayed-Type Hypersensitivity Response Test in Mice Delayed-type hypersensitivity (DTH) response in mouse skin is considered to be an effective model for clinical contact dermatitis and other T cell-mediated cutaneous immune diseases, such as atopic dermatitis and psoriasis. The DTH in mice shares the common features with these cutaneous immune diseases, including immunoinfiltration with an increase of inflammatory cytokines and hyperproliferation of keratinocytes. Balb/c mice were sensitized by topical administration of the antigen 2,4-dinitrofluorobenzene (DNFB) to the shaved back of mice on Days 0 and 1. On Day 5, the thickness of the ears was measured using an engineering micrometer. The measurement result was recorded and used as a baseline. The animals were then challenged with a total of 20 μL of DNFB (10 μL for the internal pinna and 10 μL for the external pinna) topically dosed to both ears at a concentration of 0.2%. The ears were measured again 24-72 hours after challenge. The compound ointment of the present application was applied topically to the ears of the animals throughout the allergic and challenge periods (Days −1˜7) or before or throughout the challenge period (generally Days 4˜7). The therapeutic effect was expressed by a reduction in ear swelling compared to that of the blank ointment. The compound causing a reduction of 20% or more was considered effective. Table 5 lists the skin contact delayed-type hypersensitivity experiment results in mice treated with the compound of the present application.

[4] = tested on: rash caused by small molecule EGFR inhibitors; test: Prevention of rash caused by small molecule EGFR inhibitors, topical ointment, rat model; format: in vivo, SD rats
Description: An Experiment to Verify the Prevention of Rash Caused by Small Molecule EGFR Inhibitors with Topical Administration of Compounds of the Present Application on a Rat Animal Model A rat animal model was established. After daily gavage of a small molecule EGFR inhibitor to female SD rats for […], the rats developed extensive rashes on their backs several days later (picture shown in FIG. 1). […] Similar to humans, rats developed skin rashes on their faces and bodies after oral administration of small molecule EGFR inhibitors. Both of them had the same etiology and very similar symptoms. Therefore, rats are a proper animal model for mimicking EGFR inhibitor-induced rash. After the SD rats were fed and adapted for one week (about 200 g), the rats were divided into 10 rats per group. The hair on the back of rats was gently removed with an electric razor one day before the experiment, and then an intragastric administration test was carried out. EGFR inhibitors were dissolved in a sterile aqueous solution, and diluted with PBS buffer; the amount of each gavage was not more than 2 mL, and the dosage was shown in Table 1. The experiment comprised the administration group and the control group. After intragastric administration, apply the ointment (type and concentration are shown in Table 1) of the compound used in the present application to the backs (about 3 cm*3 cm) of rats in the administration group; apply blank matrix ointment (about 0.5 g) to the backs (about 3 cm*3 cm) of rats in the control group; fix the rats with a fixed cylinder for about 4 hours after drug application, release the rats after 4 hours, wipe off the residual drug at the application site with clean water, and put them back into the cage. The frequency of intragastric administration of EGFR inhibitors is shown in Table 1, but the compounds of the present application and blank matrix ointment are applied only once a day. The intragastric administration and application test were repeated daily until an obvious rash appeared in the control group. […] Table 1 lists the animal experiment combination of various small molecule EGFR inhibitors and the compound ointment of the present application, as well as the corresponding experiment results (wherein, the value in the control rate column=the number of rats whose rash is milder in the administration group than that in the control group/the total number of rats in the administration group×100%).

[5] = Plasma stability, human plasma; format: in vitro ADME, Humans; conditions: 37° C.
Method: as §1
The experiment results are as follows, and it can be seen from the test results that the selected compounds are easily metabolized to the target compound in human plasma.

[6] = tested on: rash caused by monoclonal EGFR inhibitors; test: Treatment of rash caused by monoclonal EGFR inhibitors, topical ointment, rat model; format: in vivo; conditions: SD rats
Method: An Experiment to Verify the Treatment of Rash Caused by Monoclonal EGFR Inhibitors with Topical Administration of Compounds of the Present Application on a Rat Animal Model After the SD rats were fed and adapted for one week (about 200 g), the rats were divided into 10 rats per group. The hair on the back of rats was gently removed with an electric razor one day before the experiment, and then an administration test was carried out. The EGFR monoclonal antibody solution diluted with normal saline was injected via tail vein twice a week, and the injection rate and time were shown in Table 4; the treatment experiment was started at the time point when rats developed a rash after continuous administration for 1-2 weeks. The experiments were divided into the administration group with the compound of the present application and the control group. During the treatment experiment, monoclonal antibody EGFR inhibitors were injected twice a week. the administration group applied the compound ointment of the present application on the back (about 3 cm*3 cm) of rats every day, and the control group applied blank matrix ointment on the back (about 3 cm*3 cm); after application, the rats were fixed with a fixed cyclinder for about 4 hours, and then the rats were released, with the residual drug at the application site wiped off with clean water, and put back into the cage. […] Table 4 lists the animal experiment combinations of monoclonal antibody EGFR inhibitors and the compound ointment of the present application, as well as the corresponding experiment results (wherein, the value in the control rate column=the number of rats whose rash is milder in the administration group than that in the control group/the total number of rats in the administration group×100%).

[7] = tested on: rash caused by small molecule EGFR inhibitors; test: Treatment of rash caused by small molecule EGFR inhibitors, topical ointment, rat model; format: in vivo, SD rats
Method: An Experiment to Verify the Treatment of Rash Caused by Small Molecule EGFR Inhibitors with Topical Administration of Compounds of the Present Application on a Rat Animal Model After the SD rats were fed and adapted for one week (about 200 g), the rats were divided into 10 rats per group. The hair on the back of rats was gently removed with an electric razor one day before the experiment, and then an intragastric administration test was carried out. EGFR inhibitors were dissolved in a sterile aqueous solution, and diluted with PBS buffer; the amount of each gavage was not more than 2 mL, and the dosage was shown in Table 3. […] The experiments were divided into the administration group with the compound of the present application and the control group. During the treatment experiment, EGFR inhibitors were intragastrically administered continuously every day. After the gavage, the administration group applied the compound ointment of the present application on the back (about 3 cm*3 cm) of rats, and the control group applied blank matrix ointment on the back (about 3 cm*3 cm); after application, the rats were fixed with a fixed cyclinder for about 4 hours, and then the rats were released, with the residual drug at the application site wiped off with clean water, and put back into the cage. The frequency of intragastric administration of EGFR inhibitors is shown in Table 3, but the compounds of the present application and blank ointment are applied only once a day. […] Table 3 lists the animal experiment combinations of various small molecule EGFR inhibitors and the compound ointment of the present application, as well as the corresponding experiment results (wherein, the value in the control rate column=the number of rats whose rash is milder in the administration group than that in the control group/the total number of rats in the administration group×100%).

## C[C@@H]1CCN(C(=O)CC#N)C[C@@H]1N(C)c1ncnc2c1ccn2C(=O)N(C)CCOC(=O)C1CCCCC1 [Compound A16]
[1]
  half-life at 2 µM: 2.8 min
[1]; 0 min
  % Retained: 100.0%
[1]; 10 min
  % Retained: 8.3%
[1]; 30 min
  % Retained: 0.1%
[1]; 60 min
  % Retained: 0.0%
[1]; 120 min
  % Retained: 0.0%
[2]; Cetuximab 100 mg/kg twice a week via tail vein, ointment 0.3 wt% once a day, 10 days
  Control Rate: 10%
[2]; Cetuximab 100 mg/kg twice a week via tail vein, ointment 3.0 wt% once a day, 10 days
  Control Rate: 50%
[2]; Cetuximab 100 mg/kg twice a week via tail vein, ointment 10.0 wt% once a day, 10 days
  Control Rate: 70%
[2]; Panitumumab 10 mg/kg twice a week via tail vein, ointment 1.0 wt% once a day, 14 days
  Control Rate: 50%
[2]; Panitumumab 10 mg/kg twice a week via tail vein, ointment 5.0 wt% once a day, 14 days
  Control Rate: 80%
[2]; Panitumumab 10 mg/kg twice a week via tail vein, ointment 10.0 wt% once a day, 14 days
  Control Rate: 60%
[3]; ointment 0.1 wt%
  Reduction Rate of Ear Swelling: 25%
[3]; ointment 1.0 wt%
  Reduction Rate of Ear Swelling: 35%
[3]; ointment 5.0 wt%
  Reduction Rate of Ear Swelling: 39%
[3]; ointment 10.0 wt%
  Reduction Rate of Ear Swelling: 42%
[4]; Afatinib 40 mg/kg once a day, ointment 1.0 wt% once a day, 14 days
  Control Rate: 60%
[4]; Afatinib 40 mg/kg once a day, ointment 5.0 wt% once a day, 14 days
  Control Rate: 80%
[4]; Afatinib 40 mg/kg once a day, ointment 10.0 wt% once a day, 14 days
  Control Rate: 100%
[4]; BPI-7711 60 mg/kg once a day, ointment 1.0 wt% once a day, 12 days
  Control Rate: 50%
[4]; Erlotinib 70 mg/kg once a day, ointment 0.3 wt% once a day, 14 days
  Control Rate: 30%
[4]; Erlotinib 70 mg/kg once a day, ointment 3.0 wt% once a day, 14 days
  Control Rate: 50%
[4]; Zorifertinib 60 mg/kg once a day, ointment 1.0 wt% once a day, 14 days
  Control Rate: 30%
[5]
  half-life at 2 µM: 2.2 min
[5]; 0 min
  % Retained: 100.0%
[5]; 10 min
  % Retained: 4.5%
[5]; 30 min
  % Retained: 0.0%
[5]; 60 min
  % Retained: 0.0%
[5]; 120 min
  % Retained: 0.0%

## C=CC(=O)N1C[C@@H](Nc2ncnc3c2ccn3C(=O)N(C)CCOC(=O)C2CC2)CC[C@H]1C [Compound A33]
[6]; Cetuximab 100 mg/kg twice a week via tail vein, ointment 0.1 wt%, 10 days of drug application
  Control Rate: 20%
[6]; Cetuximab 100 mg/kg twice a week via tail vein, ointment 1.0 wt%, 10 days of drug application
  Control Rate: 50%
[6]; Cetuximab 100 mg/kg twice a week via tail vein, ointment 5.0 wt%, 10 days of drug application
  Control Rate: 80%
[6]; Cetuximab 100 mg/kg twice a week via tail vein, ointment 10.0 wt%, 10 days of drug application
  Control Rate: 100%
[6]; Panitumumab 6 mg/kg twice a week via tail vein, ointment 0.1 wt%, 8 days of drug application
  Control Rate: 30%
[6]; Panitumumab 6 mg/kg twice a week via tail vein, ointment 1.0 wt%, 8 days of drug application
  Control Rate: 70%
[6]; Panitumumab 6 mg/kg twice a week via tail vein, ointment 5.0 wt%, 8 days of drug application
  Control Rate: 70%
[6]; Panitumumab 6 mg/kg twice a week via tail vein, ointment 10.0 wt%, 8 days of drug application
  Control Rate: 100%
[3]; ointment 1.0 wt%
  Reduction Rate of Ear Swelling: 22%
[3]; ointment 5.0 wt%
  Reduction Rate of Ear Swelling: 32%
[7]; EAI045 80 mg/kg once a day, 8 dosing modelling days, ointment 1.0 wt% once a day
  Control Rate: 30%
[7]; EAI045 80 mg/kg once a day, 8 dosing modelling days, ointment 5.0 wt% once a day
  Control Rate: 60%
[7]; Osimertinib 60 mg/kg twice a day, 7 dosing modelling days, ointment 3.0 wt% once a day
  Control Rate: 30%
[7]; Osimertinib 60 mg/kg twice a day, 7 dosing modelling days, ointment 10.0 wt% once a day
  Control Rate: 70%
